Consider three compounds from PMC11772017 (Clinical and Translational Science, 2025).

In general, Km refers to the concentration of substrate that gives half-maximal velocity. The term Ki denotes the dissociation constant of the complex between target and ligand, obtained from inhibition or displacement. Low readings indicate higher affinity, high ones lower affinity.

In data set [1] the test system is CYP2D6*10. Particulars: microsomes prepared from insect cells; cited from earlier work.
The test system of data set [2] is CYP2D6*17. The following applies: tramadol as substrate; cited from earlier work.
For data set [3], the target named is T1, CYP2D6*1 (Homo sapiens, UniProt P10635).
Data set [4] addresses T2, CYP2D6*2 (Homo sapiens, UniProt P10635, R296C/S486T).
In data set [5] the target is T3, CYP2D6*10 (Homo sapiens, UniProt P10635, P34S/S486T).
For data set [6], the target named is T4, CYP2D6*17 (Homo sapiens, UniProt P10635, R296C/S486T/T107I).
Data set [7] has as its target T1, CYP2D6*1. Briefly: Inhibition of tramadol O-demethylation, CYP2D6*1 Bactosomes.
Data set [8] concerns the target T2, CYP2D6*2. Briefly: Inhibition of tramadol O-demethylation, CYP2D6*2 Bactosomes. Particulars: for Ki Ratio CYP2D6*2/CYP2D6*1: Ki of variant allele / Ki of CYP2D6*1.
Data set [9] concerns the target T3, CYP2D6*10. Briefly: Inhibition of tramadol O-demethylation, CYP2D6*10 Bactosomes. The following applies: for Ki Ratio CYP2D6*10/CYP2D6*1: Ki of variant allele / Ki of CYP2D6*1.
In data set [10] the target is T4, CYP2D6*17. Briefly: Inhibition of tramadol O-demethylation, CYP2D6*17 Bactosomes. The following applies: for Ki Ratio CYP2D6*17/CYP2D6*1: Ki of variant allele / Ki of CYP2D6*1.

The structures appear in SMILES notation. Structures can show the parent of a compound that is named as a salt.

For `COc1cccc(C2(O)CCCCC2CN(C)C)c1` (stereo not drawn) [Tramadol, tramadol hydrochloride], the “intrinsic clearance value, % of that for CYP2D6*1” value in [1] is listed as 6.9%. Also, the “intrinsic clearance relative to CYP2D6*1” value in [2] is recorded as 36%. Moreover, the CLint amounted to 0.4 μL/min/pmol P450 in data set [3] (CYP2D6*1, CLint = Vmax/Km); 0.7 μL/min/pmol P450 in [4] (CYP2D6*2, CLint = Vmax/Km); 0.1 μL/min/pmol P450 in data set [5] (CYP2D6*10, CLint = Vmax/Km). In addition, the Vmax in data set [3] (CYP2D6*1, O-desmethyltramadol formation) is listed as 22.6 pmol/min/pmol P450; in data set [4] (CYP2D6*2, O-desmethyltramadol formation), 39.7 pmol/min/pmol P450; in [5] (CYP2D6*10, O-desmethyltramadol formation), 13.6 pmol/min/pmol P450; in data set [6] (CYP2D6*17, O-desmethyltramadol formation), 5.6 pmol/min/pmol P450. Besides, the Km at 30 min in data set [3] (human, recombinant CYP2D6*1 Bactosomes, pH 7.4) is 59.6 µM; in data set [4] (human, recombinant CYP2D6*2 Bactosomes, pH 7.4), 59.4 µM; in data set [5] (human, recombinant CYP2D6*10 Bactosomes, pH 7.4), 204 µM; in [6] (human, recombinant CYP2D6*17 Bactosomes, pH 7.4), 149 µM. Further, the “intrinsic clearance compared to CYP2D6*1” value in data set [4] (CYP2D6*2, relative to CYP2D6*1) is 180%; in data set [5] (CYP2D6*10, relative to CYP2D6*1), 20%; in data set [6] (CYP2D6*17, relative to CYP2D6*1), 10%. Further, the “CLint ratio CYP2D6*X/CYP2D6*1” value worked out at 1.8 in data set [4] (CYP2D6*2/CYP2D6*1), 0.2 in data set [5] (CYP2D6*10/CYP2D6*1) and 0.1 in data set [6] (CYP2D6*17/CYP2D6*1).
As for `CC(NC(C)(C)C)C(=O)c1cccc(Cl)c1` (stereo not drawn) [Bupropion, bupropion], the Ki in [7] is 11.9 µM; in [8] it was 11.5 µM; in data set [9] it was 55.9 µM; in data set [10] it was 20.2 µM. In addition, the “Ki Ratio CYP2D6*2/CYP2D6*1” value in data set [8] worked out at 0.96. In addition, the “Ki Ratio CYP2D6*10/CYP2D6*1” value in [9] is reported as 4.69. For the same compound, in data set [10], the “Ki Ratio CYP2D6*17/CYP2D6*1” value worked out at 1.70.
Take `CN(C/C=C/C#CC(C)(C)C)Cc1cccc2ccccc12` [Terbinafine, terbinafine]: the Ki in data set [7] came to 0.0173 µM. For the same compound, in data set [8], the affinity corresponds to a Ki of 0.067 µM and the “Ki Ratio CYP2D6*2/CYP2D6*1” value is given as 3.87. Moreover, in data set [9], the Ki is 0.235 µM and the “Ki Ratio CYP2D6*10/CYP2D6*1” value is listed as 13.61. Moreover, in [10], the affinity corresponds to a Ki of 0.844 µM and the “Ki Ratio CYP2D6*17/CYP2D6*1” value was 48.77.
